One assay concerns cortical neuron cultures. Briefly: cortical neuron assay, neurite outgrowth (Cellomics ArrayScan ENO). The format is cell-based. The following applies: Rattus norvegicus, Cortical neurone, 72 hours treatment. The protocol:
Dissociated cortical neuron cultures were prepared as previously described [Pong et al, “Attenuation of staurosporine-induced apoptosis, oxidative stress, and mitochondrial dysfunction by synthetic superoxide dismutase and catalase mimetics, in cultured cortical neurons”, Exp Neurol. 2001 September; 171(1):84-97.] Briefly, embryonic day 15 rat fetuses were collected and dissected in ice-cold PBS. Dissected cortices were pooled together and transferred to an enzymatic dissociation medium containing papain. After 30 min, the tissue was mechanically triturated with a fire-polished glass Pasteur pipette. Single-cell suspensions in complete media were seeded on poly-L-ornithine and laminin coated 96-well plates. Twenty-four hours later, cultures were treated with various concentrations of compound of formula III for 72 hours. The cultures were then fixed and stained with an anti-tubulin antibody (TUJ-1) and a fluorescent-tagged secondary antibody. Neurite outgrowth was determined by using the Enhanced Neurite Outgrowth (ENO) algorithm with the Cellomics ArrayScan and expressed as average neurite length or neurite length per cell

The test system of assay [1] is cultured cortical neurons. Briefly: total neurite length in cultured cortical neurons. The following applies: 72 hours. It is filed as cell-based, rat. The protocol:
Dissociated cortical neuron cultures were prepared as previously described (Pong et al., cited above, 2001). Briefly, embryonic day 15 rat fetuses were collected and dissected in ice-cold PBS. Dissected cortices were pooled together and transferred to an enzymatic dissociation medium containing papain. After 30 minutes, the tissue was mechanically triturated with a fire-polished glass Pasteur pipette. Single-cell suspensions in complete media were seeded on poly-L-ornithine and laminin coated 96-well plates. After 24 hours, cultures were treated with various concentrations of the compound of formula III for 72 hours. The cultures were then fixed and stained with an anti-tubulin primary antibody (TU-1) and a fluorescent-tagged secondary antibody. Neurite outgrowth was determined by using the Enhanced Neurite Outgrowth (ENO) algorithm with the Cellomics ArrayScan and expressed as total neurite length per cell.

For assay [2], the system named is cultured dorsal root ganglia. Briefly: total neurite length in cultured dorsal root ganglia. It is filed as cell-based, rat. The conditions noted are these: 72 hours. The protocol:
Dissociated dorsal root ganglia cultures were prepared as previously described [A. Wood et al., “Stimulation of neurite outgrowth by immunophilin ligands: quantitative analysis by Cellomics Array scan” Society for Neuroscience (2004), abstract 104.31. Briefly, postnatal day 3-5 rat pups were euthanized. The spinal columns were removed and individual dorsal root ganglia (DRG) were dissected out. Dissected DRG were pooled together and transferred to an enzymatic dissociation medium containing papain. After 60 minutes, the tissue was mechanically triturated with a fire-polished glass Pasteur pipette. Single-cell suspensions in complete media were seeded on poly-L-ornithine and laminin coated 96-well plates. After 24 hours, cultures were treated with various concentrations of the compound of formula III for 72 hours. The cultures were then fixed and stained with an anti-tubulin primary antibody (TUJ-1) and a fluorescent-tagged secondary antibody. Neurite outgrowth was determined by using the Enhanced Neurite Outgrowth (ENO) algorithm with the Cellomics ArrayScan and expressed as total neurite length per cell.

Assay [3] relates to cultured cortical neurons. The assay is described as follows: neurofilament content in cultured cortical neurons. It is filed as cell-based, rat. The following applies: 72 hours. The protocol:
Dissociated cortical neuron cultures were prepared as previously described [Pong et al., Exp Neurol. 2001 September; 171(1):84-97 (2001)]. Briefly, embryonic day 15 rat fetuses were collected and dissected in ice-cold PBS. Dissected cortices were pooled together and transferred to an enzymatic dissociation medium containing papain. After 30 min, the tissue was mechanically triturated with a fire-polished glass Pasteur pipette. Single-cell suspensions in complete media were seeded on poly-L-ornithine and laminin coated 96-well plates. 24 hours later, cultures were treated with various concentrations of compound of formula (III) for 72 hours. The cultures were then fixed and stained with a neurofilament primary antibody and a peroxidase-tagged secondary antibody. A peroxidase substrate (K-Blue Max) was added and the calorimetric change was measure on a calorimetric plate reader.

The subject of assay [4] is mesencephalic dopanergic neuron cultures. Briefly: high-affinity 3H-DA uptake in ventral mesencephalic cultures, with or without MPP+ exposure. The following applies: for protection against MPP toxicity: pre-treatment 1 hr or 24 hr, then MPP+ for 1 hr, recovery 24 hr or 48 hr, 3H-DA uptake readout. The format is cell-based, rat. On the procedure:
Ventral mesencephalic cultures were prepared from E15 rat embryos and maintained for […] before experimentation according to the method of Pong et al., J Neurochem.
Cultures were then exposed to 10 μM 1-methyl-4-phenylpyridinium (MPP+) for 1 hr, in the presence of drug. After the 1 hr exposure, media was changed 3×, and fresh drug was added for an additional 24 hr or 48 hr.

In a further assay the target is FKBP12 (Homo sapiens, UniProt P62942). The following applies: cited from earlier work.
FKBP12, sequence (P62942 whole entry, species assumed): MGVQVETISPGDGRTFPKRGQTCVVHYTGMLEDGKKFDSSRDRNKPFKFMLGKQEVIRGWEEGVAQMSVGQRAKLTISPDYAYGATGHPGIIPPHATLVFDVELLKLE
For assay [5] the following is noted: cited from earlier work.

Bounds are passed on as bounds.

Regarding `CC/C1=C\CC(/C(C)=C/C(C)C(C)O)OC(=O)C2CCCCN2C(=O)CC2(O)OC(CCC2C)CC(O)C(C)C(O)CC(O)CC(O)/C(C)=C/C(C)CC(C)C1O` (stereo not drawn) [Example 9, C9-deoxomeridamycin], in the assay on cortical neuron cultures, the EC50 (commonly the concentration needed to bring the measured effect to its halfway point) is less than 1000 nM. Also, the “TOTAL NEURITE LENGTH (% ABOVE CONTROL)” value was determined as 10% in assay [1] (10 nM); 54% in assay [1] (100 nM); 86% in assay [1] (1 μM); 121% in assay [1] (10 μM); 17% in assay [2] (10 nM); 24% in assay [2] (100 nM). The “TOTAL NEURITE LENGTH (% ABOVE CONTROL)” value in assay [2] (1 μM) was 36%; in assay [2] (10 μM), 64%. For the same molecule, the “NEUROFILAMENT CONTENT (FOLD-INCREASE ABOVE CONTROL)” value in assay [3] (10 nM) is recorded as 1.9 FOLD-INCREASE ABOVE CONTROL; in assay [3] (100 nM) it was 2.19 FOLD-INCREASE ABOVE CONTROL; in assay [3] (1 μM) it was 2.24 FOLD-INCREASE ABOVE CONTROL; in assay [3] (10 μM), 2.29 FOLD-INCREASE ABOVE CONTROL.
Take `CC/C1=C\CC(/C(C)=C/C(C)C(C)O)OC(=O)C2CCCCN2C(=O)C(=O)C2(O)OC(CCC2C)CC(O)C(C)C(O)CC(O)CC(O)/C(C)=C/C(C)CC(C)C1O` (stereo not drawn) [meridamycin, Meridamycin]: in assay [4], the “protection against MPP toxicity” value was “partial, but significant protection”. The FKBP12 binding activity result at FKBP12 is “strong FKBP12 binding activity”. The “neuroprotective activity in vitro” value in assay [5] is reported as “significant neuroprotective activity in vitro”.

B1: GDNF: glial-derived neurotrophic factor, used as control (protein, UniProt P39905 78-211, looked up)
Glial cell line-derived …: SPDKQMAVLPRRERNRQAAAANPENSRGKGRRGQRGKNRGCVLTAIHLNVTDLGLGYETKEELIFRYCSGSCDAAETTYDKILKNLSRNRRLVSDKVGQACCRPIAFDDDLSFLDDNLVYHILRKHSAKRCGCI
With B1, in assay [4] (normal cultures, no MPP+), the DA uptake result was “enhanced DA uptake”. Besides, the “protection against MPP toxicity” value in assay [4] is “partial, but significant protection”.

These data come from US20100022766A1, “BIOSYNTHETIC GENE CLUSTER FOR THE PRODUCTION OF A COMPLEX POLYKETIDE” (WYETH, priority 2008, published 2010).
